Results as given in patent publication US20260103438A1, “PROBES AND METHODS TO IDENTIFY LIGANDABLE FATTY ACYLATION SITES FOR THERAPEUTIC TARGET IDENTIFICATION” (The General Hospital Corporation, priority 2022, published 2026).

Experiments:
TEAD2 = TEAD2 (Homo sapiens, UniProt Q15562); experiment: Labeling of TEAD2 by covalent probes in vitro (western blot); settings: probe 1 μM, 30 mins, western blot (FIG. 1)
Method: (§1) Recombinant PCNA (12131-H07B, Sino Biological), RAP1A (PRO-848, Prospec-Tany TechnoGene), RRAS2 (PRO-728, Prospec-Tany TechnoGene), IDH1 (ab113858, Abcam), IDH1R132H (14132, Cayman) are obtained from commercially available source. Recombinant TEAD2 protein were made in-house. All the recombinant proteins contain a His-tag.
(§2) 500 ng of recombinant protein in 50 μL of MES buffer (50 mM, PH 6.4), was contacted with a solution of the covalent probe so that the final concentration of covalent probe in the reaction mixture is 10 μM of covalent probes. After incubation for 30 mins, 50 μL of sample mixture was treated with 5 μL of freshly prepared “click” mixture containing 100 μM TBTA (678937, Sigma-Aldrich), 1 mM TCEP (C4706, Sigma-Aldrich), 1 mM CuSO4 (496130, Sigma-Aldrich), 100 μM Biotin-Azide (1167-5, Click Chemistry Tools) and incubated for another 1 h. To the samples was then added 11 μL of 6×SDS loading buffer (BP-111R, Boston Bio-Products) and the resultant mixture was denatured at 95° C. for 5 mins. SDS-PAGE was used to analyze the samples. Labeling signal was detected by streptavidin-HRP antibody (1:3000, S911, Invitrogen). The total protein level was detected by primary anti-His-tag antibody (1:10000, MA1-21315, Invitrogen) and secondary anti-mouse antibodies (1:5000, 7076S, Cell Signaling).

PCNA = PCNA (Homo sapiens, UniProt P12004); experiment: Auto-palmitoylation of recombinant PCNA with Alkyne Palmitoyl-CoA (western blot); settings: indicated concentrations, 30 mins (FIG. 6A)
PCNA, sequence (P12004 whole entry): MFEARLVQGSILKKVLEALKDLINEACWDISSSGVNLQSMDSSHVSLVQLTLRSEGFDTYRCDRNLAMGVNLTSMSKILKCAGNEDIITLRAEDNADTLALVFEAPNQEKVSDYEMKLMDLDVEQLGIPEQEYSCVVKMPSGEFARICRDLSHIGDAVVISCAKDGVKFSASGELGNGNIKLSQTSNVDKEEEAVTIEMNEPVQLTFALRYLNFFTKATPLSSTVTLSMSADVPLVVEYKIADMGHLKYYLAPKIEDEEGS
Method: as §1, §2

RAP1A = target: T1, RAP1A (Homo sapiens, UniProt P62834); experiment: Auto-palmitoylation of recombinant RAP1A with Alkyne Palmitoyl-CoA (western blot); settings: indicated concentrations, 30 mins (FIG. 6B)
T1 sequence (P62834 1-184): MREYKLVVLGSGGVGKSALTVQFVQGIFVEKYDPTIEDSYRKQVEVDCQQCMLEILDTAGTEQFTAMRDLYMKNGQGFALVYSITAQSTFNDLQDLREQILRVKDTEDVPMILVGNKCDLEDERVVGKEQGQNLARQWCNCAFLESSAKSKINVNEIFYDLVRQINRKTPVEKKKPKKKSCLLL
Method: as §1, §2

RRAS2 = target: T2, RRAS2 (Homo sapiens, UniProt P62070); experiment: Auto-palmitoylation of recombinant RRAS2 with Alkyne Palmitoyl-CoA (western blot); settings: indicated concentrations, 30 mins (FIG. 6C)
T2 sequence (P62070 1-204): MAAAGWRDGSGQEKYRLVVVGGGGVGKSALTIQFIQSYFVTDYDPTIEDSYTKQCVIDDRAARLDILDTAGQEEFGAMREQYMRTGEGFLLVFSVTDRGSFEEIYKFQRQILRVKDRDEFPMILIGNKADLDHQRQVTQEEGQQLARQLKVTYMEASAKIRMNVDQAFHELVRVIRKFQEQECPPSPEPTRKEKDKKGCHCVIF
Method: as §1, §2

IDH1WT = IDH1WT (Homo sapiens, UniProt O75874); experiment: Auto-palmitoylation of recombinant IDH1 WT with Alkyne Palmitoyl-CoA (western blot); settings: indicated concentrations, 30 mins (FIG. 6D)
IDH1WT, sequence (O75874 whole entry): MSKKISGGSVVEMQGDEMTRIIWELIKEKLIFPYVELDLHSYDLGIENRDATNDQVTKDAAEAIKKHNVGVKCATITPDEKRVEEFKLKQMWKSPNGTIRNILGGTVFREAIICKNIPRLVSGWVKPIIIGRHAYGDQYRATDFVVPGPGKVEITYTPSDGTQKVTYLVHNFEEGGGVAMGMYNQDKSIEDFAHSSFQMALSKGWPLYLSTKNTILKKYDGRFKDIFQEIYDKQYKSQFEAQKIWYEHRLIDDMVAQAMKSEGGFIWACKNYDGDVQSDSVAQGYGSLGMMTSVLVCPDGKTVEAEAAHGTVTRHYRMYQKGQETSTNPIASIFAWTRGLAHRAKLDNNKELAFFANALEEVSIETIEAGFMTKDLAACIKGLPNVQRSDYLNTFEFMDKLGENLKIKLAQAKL
Method: as §1, §2

Myc-TEAD1 C344S mutant = target: T3, Myc-TEAD1 C344S mutant (Homo sapiens, UniProt P28347, C359S); experiment: Labeling of transfected Myc-TEAD1 wild type or C344S mutant in HEK293A cells (streptavidin pulldown, western blot); assay type: cell-based; settings: 10 μM overnight, C344S vs wild type (FIG. 3)
T3 construct: expressed in transfected cells; host or cells: HEK293A
T3 sequence (P28347 16-426 C359S limits assumed): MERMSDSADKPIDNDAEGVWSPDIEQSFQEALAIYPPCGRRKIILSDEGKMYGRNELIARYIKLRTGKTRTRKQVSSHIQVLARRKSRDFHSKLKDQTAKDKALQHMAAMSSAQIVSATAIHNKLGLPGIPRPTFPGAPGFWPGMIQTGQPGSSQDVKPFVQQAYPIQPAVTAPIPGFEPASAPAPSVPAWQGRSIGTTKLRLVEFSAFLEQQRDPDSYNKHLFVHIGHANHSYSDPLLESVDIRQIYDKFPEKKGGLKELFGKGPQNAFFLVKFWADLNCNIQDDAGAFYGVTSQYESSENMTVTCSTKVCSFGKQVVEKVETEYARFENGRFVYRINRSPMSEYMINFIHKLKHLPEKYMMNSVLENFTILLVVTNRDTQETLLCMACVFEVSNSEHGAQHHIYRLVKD
Method: HEK293A cells was seed in 6 cm dishes overnight and transfected with plasmids using PEI reagent (1 μg/μL). Briefly, proteins of interest and PEI were diluted in serum-free DMEM medium in two tubes (DNA:PEI ratio=1:2). After standing still for 5 mins, the solutions were mixed well and allowed to stand unperturbed for an additional 20 mins. The mixture was then added to dishes directly.
For in-cell labeling, HEK293A cells with or without overexpression of proteins of interest were starved in DMEM medium with 10% dialyzed fetal bovine serum (DFBS) for 1 h and labeled using the covalent probes (10 μM) overnight. The cells were then washed and harvested using cold DPBS (14190250, Life Technologies). […] The protein concentration was determined using Bio-Rad assay and adjusted to 1 mg/mL. […] The protein concentration is determined using Bio-Rad assay and adjusted to 1 mg/mL. […]
100 μL of labeled proteome was treated with 10 μL of freshly prepared “click” mixture containing 1 mM TBTA, 10 mM TCEP, 10 mM CuSO4, 1 mM Biotin-Azide and incubated for 1 h at room temperature. […] The bound proteins were eluted with a buffer containing 10 mM EDTA (pH 8.2) and 95% formamide and analyzed with SDS-PAGE. […]

HEK293A cells = experiment: MS-based proteomics of proteins enriched by covalent probes; assay type: cell-based; settings: for number of proteins collectively targeted by Compound A21, Compound B1 and Compound B4: HEK293A cells, Venn diagram (FIG. 4); for number of proteins enriched by the covalent probes also identified by SLC-ABPP: overlap with SLC-ABPP database (FIG. 5)
Method: For in-cell labeling, HEK293A cells with or without overexpression of proteins of interest were starved in DMEM medium with 10% dialyzed fetal bovine serum (DFBS) for 1 h and labeled using the covalent probes (10 μM) overnight. The cells were then washed and harvested using cold DPBS (14190250, Life Technologies). The cell pellets were isolated by centrifugation (500×g, 10 min) and lysed by TEA lysis buffer (50 mM TEA-HCl, pH 7.4, 150 mM NaCl, 1% Triton X-100, 0.2% SDS, 1×Protease inhibitor-EDTA free cocktail (05892791001, Roche), phosphatase inhibitor cocktail (P0044, Sigma-Aldrich)) on ice for 30 mins. The protein concentration was determined using Bio-Rad assay and adjusted to 1 mg/mL. For lysate labeling, HEK293A cells were grown in DMEM with 10% FBS. When confluence reached ˜90%, the cells were washed and harvested by cold DPBS. The cell pellets were isolated by centrifugation (500×g, 5 min) and resuspended with TEA lysis buffer (50 mM TEA-HCl, pH 7.4, 150 mM NaCl, 1% Triton X-100, IXProtease inhibitor-EDTA free cocktail, phosphatase inhibitor cocktail), incubated on ice for 15 mins, and then sonicated (7 s, 30% duty cycle, output setting=3). After centrifugation (17,000×g, 10 min), the supernatant is transferred to a clean tube. The protein concentration is determined using Bio-Rad assay and adjusted to 1 mg/mL. The lysate was then labeled with DMSO or probes (10 μM) at room temperature for 1 h with rotation. SDS was added to the lysate to a final concentration of 0.2% and the resultant solution retained for further use.
To 1.5 mg of proteomes from cell labeling or lysate labeling as described above were added 150 μL fresh prepared “click” mixture of TBTA (75 μL, 2 mM in 1:4 DMSO: t-BuOH), CuSO4 (30 μL, 50 mM in H2O), TCEP (30 μL, 50 mM in H2O) and Biotin-Azide (15 μL, 10 mM in DMSO). The samples were rotated at room temperature for 1 h. To these samples were then added MeOH (6 mL), CHCl3 (1.5 mL) and H2O (4.5 mL), and the resultant solution was mixed well. After centrifugation (17,000×g, 10 min), the aqueous layers were carefully aspirated leaving a protein disc between the organic and aqueous phases. The protein disc was washed with 6 mL of methanol and isolated by centrifugation (17,000×g, 10 min). The remaining protein pellet was collected and redissolved with 700 μL of 2% SDS in 0.1% PBST. The solution was diluted with 4.9 mL of 0.1% PBST and added 0.1% PBST-washed streptavidin agarose beads (150 μL, 1:1, sigma). After rotation at room temperature for 2 h, the beads were then pelleted by centrifugation (500×g, 5 min) and washed with 0.2% SDS in PBS (3×1 mL). The beads were transferred to a Protein Low-Binding tube and the immobilized proteins were digested by addition of urea (200 μL, 2.0 M in DPBS), CaCl2) (2.0 μL, 100 mM in H2O) and sequence grade porcine trypsin (2 μg; Promega). After digesting overnight at 37° C., the supernatant was transferred to a clean Protein Low-Binding, acidified with HCO2H (formic acid, 16 μL) and stored at −20° C. until the analyzed by LC-MS/MS.

TEAD2, sequence (Q15562 whole entry, species assumed): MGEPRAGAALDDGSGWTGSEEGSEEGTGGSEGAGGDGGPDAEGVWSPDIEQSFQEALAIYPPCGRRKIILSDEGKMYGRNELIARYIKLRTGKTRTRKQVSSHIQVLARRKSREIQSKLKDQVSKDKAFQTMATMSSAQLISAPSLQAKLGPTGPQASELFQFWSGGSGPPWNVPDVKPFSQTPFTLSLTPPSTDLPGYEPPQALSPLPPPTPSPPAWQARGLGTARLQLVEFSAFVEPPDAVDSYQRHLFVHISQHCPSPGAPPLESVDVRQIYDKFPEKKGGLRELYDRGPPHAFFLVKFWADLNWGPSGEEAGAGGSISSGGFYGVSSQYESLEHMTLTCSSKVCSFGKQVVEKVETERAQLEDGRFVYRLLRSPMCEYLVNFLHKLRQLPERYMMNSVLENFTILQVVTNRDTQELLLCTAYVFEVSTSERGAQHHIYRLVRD

SMILES | labeling efficiency of TEAD2 (TEAD2) | number of proteins collectively targeted by Compound A21, Compound B1 and Compound B4 (HEK293A cells) | number of proteins enriched by the covalent probes also identified by SLC-ABPP (HEK293A cells) [proteins] | other results
C#CCCCCCCCCCCCCNC(=O)CI [Compound A63, 2-iodo-N-(tetradec-13-yn-1-yl)acetamide] | strong labeling efficiency |  |  | 
C#CCCCCCCCCCCCCCC(=O)SCCNC(=O)CCNC(=O)[C@H](O)C(C)(C)COP(=O)(O)OP(=O)(O)OC[C@H]1O[C@@H](n2cnc3c(N)ncnc32)[C@H](O)[C@@H]1OP(=O)(O)O [Alkyne Palmitoyl-CoA] |  |  |  | auto-palmitoylation (labeling) of PCNA (PCNA): auto-palmitoylated in a dose dependent manner; auto-palmitoylation (labeling) of RAP1A (RAP1A): auto-palmitoylated in a dose dependent manner; auto-palmitoylation (labeling) of RRAS2 (RRAS2): auto-palmitoylated in a dose dependent manner; auto-palmitoylation (labeling) of IDH1 WT (IDH1WT): auto-palmitoylated in a dose dependent manner
C#CCCCCCCCCCCCCNC(=O)CBr [Compound B4, 2-bromo-N-(tetradec-13-yn-1-yl)acetamide] | strong labeling efficiency | One hundred and sixty | 191 | effect of mutating cysteine 344 (C344S) on labeling of Myc-TEAD1 by the probe (Myc-TEAD1 C344S mutant): inhibited labeling
C#CCCCCCCCCCCCCCCNC(=O)CBr [Compound B1, 2-bromo-N-(hexadec-15-yn-1-yl)acetamide] | strong labeling efficiency | One hundred and sixty | 191 | 
C#CCCCCCCCCCCCCCCNS(=O)(=O)C=C [Compound A26, N-(hexadec-15-yn-1-yl)ethenesulfonamide] | strong labeling efficiency |  |  | 
C#CCCCCCCCCCCCCNS(=O)(=O)C=C [Compound A64, N-(tetradec-13-yn-1-yl)ethenesulfonamide] | strong labeling efficiency |  |  | 
C#CCCCCCCCCCCCCCCNC(=O)CI [Compound A21, N-(hexadec-15-yn-1-yl)-2-iodoacetamide] | strong labeling efficiency | One hundred and sixty | 191 | 
